Laboratory results: patent publication US10981932B2, “Macrocyclic indole derivatives” (Bayer Aktiengesellschaft, priority 2016, dated 2021)
Read-outs that look alike come from different tables or passages of the source.

What was measured:
MCL-1 = MCL-1 (Homo sapiens, UniProt Q07820); assay: Protein-protein interaction assay MCL-1/Noxa BH3 peptide (MCL-1 assay), TR-FRET; type: binding; settings: MBP-MCL-1 / Noxa BH3-derived peptide, median
Outline: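 TR-FRET, 665/622 nm emission ratio (excitation 330–350 nm), measured MCL-1/Noxa complex formation. 1 nM MBP-MCL-1, 50 mM Tris/HCl pH 7, 0.1% BGG, 2 mM DTT. Incubation 1 h at 22 °C, then overnight at 4 °C. IC50 by 4-parameter regression, normalized to DMSO (0%) and no-MCL-1 (100%) controls.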

SUDHL5 [1] = assay: Induction of caspase-3/7 activity (Caspase-Glo 3/7), SUDHL5; type: cell-based; settings: caspase-3/7 induction, SUDHL5 cells, 3 h treatment; median
Outline: (§1)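 DLBCL cells treated with compounds for 3 h at 37 °C, then caspase-3/7 activity read by Caspase-Glo 3/7 luminescence. Medium-only background subtracted; EC50 fitted with C0 fixed at 1 and top set to the reference compound's maximal induction.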

SUDHL10 [2] = assay: Induction of caspase-3/7 activity (Caspase-Glo 3/7), SUDHL10; type: cell-based; settings: caspase-3/7 induction, SUDHL10 cells, 3 h treatment, median
Outline: as §1

SUDHL5 [3] = assay: Anti-proliferative effect (CellTiter-Glo, 72 h), SUDHL5; type: cell-based; settings: SUDHL5 cells, antiproliferation, 72 h incubation, median, read-out: Antiproli SUDHL5 [M] (median)
Outline: (§2)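 Cells were treated with compounds for 72 h at 37 °C in a humidified incubator, and viability was measured by CellTiter-Glo luminescence. A parallel day 0 plate, read the same way, gave the time zero baseline.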

A2780 = assay: Anti-proliferative effect (CellTiter-Glo, 72 h), A2780; type: cell-based; settings: A2780 cells, median, read-out: IC50 antiproliferation assay A2780 [M] (median)
Outline: as §2

MV-4-11 = assay: Anti-proliferative effect (CellTiter-Glo, 72 h), MV-4-11; type: cell-based; settings: MV-4-11 cells, median, read-out: IC50 antiproliferation assay MV-4-11 [M] (median)
Outline: as §2

SUDHL5 [4] = assay: Induction of cytotoxicity (CellTiter-Glo, 5 h), SUDHL5; settings: read-out: Cytotox SUDHL5 [M] (median); SUDHL5 cells, cytotoxicity induction, CellTiter-Glo, 5 h incubation, median
SUDHL10 [5] = assay: Induction of cytotoxicity (CellTiter-Glo, 5 h), SUDHL10; settings: read-out: Cytotox SUDHL10 [M] (median); SUDHL10 cells, cytotoxicity induction, CellTiter-Glo, 5 h incubation, median

Chain of MCL-1 (Q07820 whole entry): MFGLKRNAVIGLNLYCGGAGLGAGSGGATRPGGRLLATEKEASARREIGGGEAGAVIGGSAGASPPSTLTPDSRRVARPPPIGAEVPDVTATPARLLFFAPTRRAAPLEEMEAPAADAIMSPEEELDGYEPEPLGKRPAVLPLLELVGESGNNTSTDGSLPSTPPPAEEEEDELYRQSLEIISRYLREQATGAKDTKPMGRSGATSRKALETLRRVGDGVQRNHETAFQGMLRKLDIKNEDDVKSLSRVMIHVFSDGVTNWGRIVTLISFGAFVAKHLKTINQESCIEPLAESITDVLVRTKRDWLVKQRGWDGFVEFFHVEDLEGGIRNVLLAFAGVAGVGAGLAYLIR

Work on `Cn1nc2c(c1OC(F)F)-c1cccc3c(CCCOc4cccc5ccccc45)c(C(=O)O)n(c13)CCCCOC2` (single isomer, unassigned) [Example 236, (+)-3-(difluoromethoxy)-2-methyl-7-[3-(naphthalen-1-yloxy)propyl]-2,10,11,12,13,15-hexahydropyrazolo[4′,3′:9,10][1,6]oxazacycloundecino[8,7,6-hi]indole-8-carboxylic Acid] yielded an IC50 (MCL-1) of 0.00678 µM, an EC50 (SUDHL5 [1]) of 11.2 µM and an EC50 (SUDHL10 [2]) of 25.1 µM. The IC50 (SUDHL5 [3]) was 9.48e-06 M, the IC50 (A2780) was 2.6e-05 M and the IC50 (MV-4-11) was 2.19e-05 M. For the same compound, the IC50 (SUDHL5 [4]) was 1.06e-05 M and the IC50 (SUDHL10 [5]) was 2.52e-05 M.

`O=C(O)c1c(CCCOc2cccc3ccccc23)c2cccc3c2n1CCCCOCc1nn2c(c1-3)CCCC2` (single isomer, unassigned) [Example 254, 1-[3-(naphthalen-1-yloxy)propyl]-4,5,6,7,12,13,14,15-octahydro-9H-pyrido[1″,2″:1′,5′]pyrazolo[4′,3′:9,10][1,6]oxazacycloundecino[8,7,6-hi]indole-2-carboxylic Acid] gave an IC50 (MCL-1) of 0.00214 µM, an EC50 (SUDHL5 [1]) of 3.01 µM and an EC50 (SUDHL10 [2]) of 7.24 µM. It also gave an IC50 (SUDHL5 [3]) of 2.32e-06 M, an IC50 (A2780) of 2.25e-05 M and an IC50 (A2780; Homo sapiens, A2780, 72 h) greater than 3.3e-05 M. It also gave an IC50 (MV-4-11; Homo sapiens, MV4-11, 72 h) of 8.59e-06 M, an IC50 (SUDHL5 [4]) of 3.21e-06 M and an IC50 (SUDHL10 [5]) of 8.11e-06 M.

`O=C(O)c1c(CCCOc2cccc3ccccc23)c2cccc3c2n1CCCCOCc1nn2c(c1-3)CCCC2` (single isomer, unassigned) [Example 255, 1-[3-(naphthalen-1-yloxy)propyl]-4,5,6,7,12,13,14,15-octahydro-9H-pyrido[1″,2″:1′,5′]pyrazolo[4′,3′:9,10][1,6]oxazacycloundecino[8,7,6-hi]indole-2-carboxylic Acid] was tested, and the IC50 (MCL-1) was 0.067 µM, the EC50 (SUDHL5 [1]) was greater than 33 µM and the EC50 (SUDHL10 [2]) was greater than 33 µM. The IC50 (SUDHL5 [3]) was 1.39e-05 M, the IC50 (A2780) was 2.48e-05 M and the IC50 (MV-4-11) was 1.31e-05 M. It also gave an IC50 (SUDHL5 [4]) greater than 3.3e-05 M and an IC50 (SUDHL10 [5]) of 3.28e-05 M.

`Cc1ccc2c(C(C)CCOc3cccc4ccccc34)c(C(=O)O)n3c2c1-c1c(C)nn(C)c1COCCCC3` (single isomer, unassigned) [Example 260, 1,3,4-trimethyl-7-[4-(naphthalen-1-yloxy)butan-2-yl]-1,10,11,12,13,15-hexahydropyrazolo[4′3′:9,10][1,6]oxazacycloundecino[8,7,6-hi]indole-8-carboxylic Acid] gave an IC50 (MCL-1) of 0.00875 µM, an EC50 (SUDHL5 [1]) of 10.2 µM and an EC50 (SUDHL10 [2]) of 11.3 µM. For the same compound, the IC50 (SUDHL5 [3]) was 3.61e-06 M, the IC50 (A2780) was 2.2e-05 M and the IC50 (MV-4-11; Homo sapiens, MV4-11, 72 h) was 4.35e-06 M. It also gave an IC50 (SUDHL5 [4]) of 6.3e-06 M and an IC50 (SUDHL10 [5]) of 1.18e-05 M.

Compound `CCc1nn(C)c2c1-c1c(C)ccc3c(CCCOc4cccc5cc(F)ccc45)c(C(=O)O)n(c13)CCCCOC2` (single isomer, unassigned) [Example 268, (−)-3-ethyl-7-{3-[(6-fluoronaphthalen-1-yl)oxy]propyl}-1,4-dimethyl-1,10,11,12,13,15-hexahydropyrazolo[4′,3′:9,10][1,6]oxazacycloundecino[8,7,6-hi]indole-8-carboxylic Acid] has an IC50 (MCL-1) of 0.0407 µM, an EC50 (SUDHL5 [1]) greater than 33 µM and an EC50 (SUDHL10 [2]) greater than 33 µM. The IC50 (SUDHL5 [3]) was 7.41e-06 M, the IC50 (A2780) was 2.29e-05 M and the IC50 (MV-4-11) was 7.46e-06 M. The IC50 (SUDHL5 [4]) was greater than 3.3e-05 M and the IC50 (SUDHL10 [5]) was greater than 3.3e-05 M.

Work on `CCc1nn(C)c2c1-c1c(C)ccc3c(C(C)CCOc4cccc5ccccc45)c(C(=O)O)n(c13)CCCCOC2` (single isomer, unassigned) [Example 272, 3-ethyl-1,4-dimethyl-7-[4-(naphthalen-1-yloxy)butan-2-yl]-1,10,11,12,13,15-hexahydropyrazolo[4′,3′:9,10][1,6]oxazacycloundecino[8,7,6-hi]indole-8-carboxylic Acid] yielded an IC50 (MCL-1) of 0.983 µM, an EC50 (SUDHL5 [1]) greater than 33 µM and an EC50 (SUDHL10 [2]; Homo sapiens, SU-DHL10, 3 h) of 23.8 µM. The IC50 (SUDHL5 [3]; Homo sapiens, SU-DHL-5, 72 h) was 2.76e-06 M, the IC50 (A2780) was 7.15e-06 M and the IC50 (MV-4-11; Homo sapiens, MV4-11, 72 h) was 4.89e-06 M. For the same compound, the IC50 (SUDHL5 [4]) was greater than 3.3e-05 M and the IC50 (SUDHL10 [5]) was 2.5e-05 M.

For `CCc1nn(C)c2c1-c1c(C)ccc3c(C(C)CCOc4cccc5ccccc45)c(C(=O)O)n(c13)CCCCOC2` (single isomer, unassigned) [Example 273, 3-ethyl-1,4-dimethyl-7-[4-(naphthalen-1-yloxy)butan-2-yl]-1,10,11,12,13,15-hexahydropyrazolo[4′,3′:9,10][1,6]oxazacycloundecino[8,7,6-hi]indole-8-carboxylic Acid], the IC50 (MCL-1) was 0.00589 µM, the EC50 (SUDHL5 [1]) was 5.37 µM and the EC50 (SUDHL10 [2]) was 15.9 µM. For the same compound, the IC50 (SUDHL5 [3]) was 3.74e-06 M, the IC50 (A2780) was 4.18e-06 M and the IC50 (MV-4-11) was 4.53e-06 M. It also gave an IC50 (SUDHL5 [4]) of 4.58e-06 M and an IC50 (SUDHL10 [5]) of 1.62e-05 M.

In the case of `CCc1nn(C)c2c1-c1c(C)ccc3c(C(C)CCOc4cccc5ccccc45)c(C(=O)O)n(c13)CCCCOC2` (single isomer, unassigned) [Example 274, 3-ethyl-1,4-dimethyl-7-[4-(naphthalen-1-yloxy)butan-2-yl]-1,10,11,12,13,15-hexahydropyrazolo[4′,3′:9,10][1,6]oxazacycloundecino[8,7,6-hi]indole-8-carboxylic Acid], the IC50 (MCL-1) is reported as 1.56 µM, the EC50 (SUDHL5 [1]) is reported as greater than 33 µM and the EC50 (SUDHL10 [2]) is reported as 31.7 µM. For the same compound, the IC50 (SUDHL5 [3]) was 3.93e-06 M, the IC50 (A2780) was 1.17e-05 M and the IC50 (MV-4-11) was 8.02e-06 M. It also gave an IC50 (SUDHL5 [4]) greater than 3.3e-05 M and an IC50 (SUDHL10 [5]) greater than 3.3e-05 M.

For `CCc1nn(C)c2c1-c1c(C)ccc3c(C(C)CCOc4cccc5ccccc45)c(C(=O)O)n(c13)CCCCOC2` (single isomer, unassigned) [Example 275, 3-ethyl-1,4-dimethyl-7-[4-(naphthalen-1-yloxy)butan-2-yl]-1,10,11,12,13,15-hexahydropyrazolo[4′,3′:9,10][1,6]oxazacycloundecino[8,7,6-hi]indole-8-carboxylic Acid], the IC50 (MCL-1) was 3.97 µM, the EC50 (SUDHL5 [1]) was greater than 33 µM and the EC50 (SUDHL10 [2]) was 21.6 µM. For the same compound, the IC50 (SUDHL5 [3]) was 3.33e-06 M, the IC50 (A2780) was 7.02e-06 M and the IC50 (MV-4-11) was 4.52e-06 M. The IC50 (SUDHL5 [4]) was greater than 3.3e-05 M and the IC50 (SUDHL10 [5]) was 2.83e-05 M.

With `Cc1ccc2c(C(C)CCOc3cccc4cc(F)ccc34)c(C(=O)O)n3c2c1-c1c(nn(C)c1C)COCCCC3` (single isomer, unassigned) [Example 277, 7-{4-[(6-fluoronaphthalen-1-yl)oxy]butan-2-yl}-2,3,4-trimethyl-2,10,11,12,13,15-hexahydropyrazolo[4′3′:9,10][1,6]oxazacycloundecino[8,7,6-hi]indole-8-carboxylic Acid] the IC50 (MCL-1) was 0.0013 µM, the EC50 (SUDHL5 [1]) was 1.4 µM and the EC50 (SUDHL10 [2]) was 1.8 µM. It also gave an IC50 (SUDHL5 [3]) of 2.05e-06 M, an IC50 (A2780; Homo sapiens, A2780, 72 h) of 1.5e-05 M and an IC50 (MV-4-11; Homo sapiens, MV4-11, 72 h) of 8.78e-06 M. For the same compound, the IC50 (SUDHL5 [4]) was 2.1e-06 M and the IC50 (SUDHL10 [5]) was 2.28e-06 M.

With `Cc1ccc2c(C(C)CCOc3cccc4cc(F)ccc34)c(C(=O)O)n3c2c1-c1c(nn(C)c1C)COCCCC3` (single isomer, unassigned) [Example 278, 7-{4-[(6-fluoronaphthalen-1-yl)oxy]butan-2-yl}2,3,4-trimethyl-2,10,11,12,13,15-hexahydropyrazolo[4′,3′:9,10][1,6]oxazacycloundecino[8,7,6-hi]indole-8-carboxylic Acid] the IC50 (MCL-1) was 0.142 µM, the EC50 (SUDHL5 [1]) was 26.3 µM and the EC50 (SUDHL10 [2]) was greater than 33 µM. For the same compound, the IC50 (SUDHL5 [3]) was 1.19e-05 M, the IC50 (A2780) was 1.26e-05 M and the IC50 (MV-4-11) was 1.49e-05 M. The IC50 (SUDHL5 [4]) was 2.48e-05 M and the IC50 (SUDHL10 [5]) was greater than 3.3e-05 M.

For `Cc1ccc2c(C(C)CCOc3cccc4cc(F)ccc34)c(C(=O)O)n3c2c1-c1c(nn(C)c1C)COCCCC3` (single isomer, unassigned) [Example 279, 7-{4-[(6-fluoronaphthalen-1-yl)oxy]butan-2-yl}-2,3,4-trimethyl-2,10,11,12,13,15-hexahydropyrazolo[4′,3′:9,10][1,6]oxazacycloundecino[8,7,6-hi]indole-8-carboxylic Acid], the IC50 (MCL-1) was 1.6 µM, the EC50 (SUDHL5 [1]) was 25.5 µM and the EC50 (SUDHL10 [2]) was 26.6 µM. The IC50 (SUDHL5 [3]) was 7.56e-06 M, the IC50 (A2780) was 7.5e-06 M and the IC50 (MV-4-11) was 1.57e-05 M. It also gave an IC50 (SUDHL5 [4]) of 2.05e-05 M and an IC50 (SUDHL10 [5]) of 2.94e-05 M.

In the case of `Cc1ccc2c(C(C)CCOc3cccc4cc(F)ccc34)c(C(=O)O)n3c2c1-c1c(nn(C)c1C)COCCCC3` (single isomer, unassigned) [Example 280, 7-{4-[(6-fluoronaphthalen-1-yl)oxy]butan-2-yl}-2,3,4-trimethyl-2,10,11,12,13,15-hexahydropyrazolo[4′3′:9,10][1,6]oxazacycloundecino[8,7,6-hi]indole-carboxylic Acid], the IC50 (MCL-1) is reported as 0.194 µM, the EC50 (SUDHL5 [1]) is reported as greater than 33 µM and the EC50 (SUDHL10 [2]) is reported as 32.4 µM. It also gave an IC50 (SUDHL5 [3]) of 1.18e-05 M, an IC50 (A2780) of 8.02e-06 M and an IC50 (MV-4-11) of 1.11e-05 M. The IC50 (SUDHL5 [4]) was greater than 3.3e-05 M and the IC50 (SUDHL10 [5]) was 3.07e-05 M.
